Measurements taken from patent US8933071B2, “Dimethyl fasudil for inducing polyploidization of megakaryocytes and for treating blood and bone marrow diseases and disorders” (Northwestern University, priority 2008, dated 2015).

Tests used:
[1] = system: Y10 cells; assay: Polyploidization of Y10 cells (DNA content by flow cytometry); type: cell-based; settings: wild-type (Y10) cells, 72 hours
Protocol: (§1) FIG. 2 illustrates that SU6656 induces polyploidization and proliferative arrest of megakaryocytic leukemia cells. (A) Y10, (B) GIME, and (C) CMK cells were grown in the presence of TPO, SU6656, or vehicle (DMSO) for 72 hours. DNA content was measured by flow cytometry. The percentages of cells that reach a DNA content of ≧8N are boxed in A and C, those equal to 8N are boxed in B. D) CMK cells were grown as in (C), and cell numbers were enumerated at 0, 24, 48 and 72 h.
(§2) To study how megakaryocytes switch from a proliferative to endomitotic cell cycle, the Src kinase inhibitor SU6656 is being utilized.

[2] = system: GIME cells; assay: Polyploidization of GIME cells (DNA content by flow cytometry); type: cell-based; settings: GATA1-null (GIME) cells, 72 hours
Protocol: as §1, with “(A)” for “FIG. 2 illustrates that SU6656 induces polyploidization and proliferative arrest of megakaryocytic leukemia cells. (A)”
DNA content was then assessed by flow cytometry. Numbers above the bar indicate % of cells ≧8N. b) After 48 hours, GIME cells from a) were stained with anti-CD42 antibodies and the cell surface expression of CD42 was evaluated by flow cytometry.
as §2

[3] = system: CMK cells; assay: Polyploidization of CMK cells (DNA content); type: cell-based, human; settings: GATA1/JAK3 double mutant CMK cell line, 72 hours
Protocol: as §1, with “(A)” for “FIG. 2 illustrates that SU6656 induces polyploidization and proliferative arrest of megakaryocytic leukemia cells. (A)”
as §2
In collaboration with the Broad Institute, a high throughput screen for small molecules was conducted to identify small molecules that preferentially induce polyploidization or differentiation of megakaryocytes. We screened 10,000 compounds from the Broad's extensive collection of small molecules (including known bioactives, kinase and HDAC inhibitors, and natural products) to identify inducers of megakaryocyte polyploidization. […] 6) Data were analyzed using both MetaXpress software and “Cell Profiler,” software designed at MIT and the Broad Institute. […]

[4] = system: primary murine megakaryocytes; assay: Polyploidization of primary murine megakaryocytes; type: cell-based; settings: data not shown
Description: as §2

[5] = system: CMK cells; assay: CMK cell proliferation (cell numbers enumerated); type: cell-based, human; settings: CMK cells, 0, 24, 48 and 72 h
Protocol: as §1, §2

[6] = system: wild-type and GATA-1 mutant megakaryocyte progenitors; assay: Proliferation of megakaryocyte progenitors; type: cell-based; settings: preliminary data
Description: The paradigm for successful, targeted differentiation therapy is the use of all trans retinoic acid (ATRA) for treatment of Acute Promyelocytic Leukemia (APL) (for a review, see (20). Prior to the development of ATRA therapy, the prognosis for patients with APL, which represents 5-10% of adult AML, was very poor. In contrast, the vast majority of APL patients treated with ATRA achieve hematologic remission (21-23). One aim of the current study is to test novel therapeutic strategies for AMKL, in particular, whether the forced induction of MK polyploidization can serve as a “differentiation therapy” for AMKL. […] Furthermore, megakaryocytes are one of the few cell types that are poised to undergo polyploidization during normal maturation.

[7] = system: CMK (human megakaryocytic leukemia) cells; assay: High throughput screen for inducers of megakaryocyte polyploidization; type: cell-based; settings: 10 μM, 72 hours, Hoescht stain, high content imaging
Protocol: In collaboration with the Broad Institute, a high throughput screen for small molecules was conducted to identify small molecules that preferentially induce polyploidization or differentiation of megakaryocytes. We screened 10,000 compounds from the Broad's extensive collection of small molecules (including known bioactives, kinase and HDAC inhibitors, and natural products) to identify inducers of megakaryocyte polyploidization. The screen was performed in the following manner: 1) 4,000 CMK (human megakaryocytic leukemia) cells were plated into each well of a 384-well plate, 2) 100 n1 of compounds (yielding a final concentration of 10 μM) were pinned into the wells, 3) plates were incubated at 37° C. for 72 hours, 4) cells were fixed and stained with Hoescht, and 5) plates were imaged using an ImageXpressMICRO high content imager with 20× objective. Nine images per well were collected. 6) Data were analyzed using both MetaXpress software and “Cell Profiler,” software designed at MIT and the Broad Institute. Seventy-two plates containing duplicates of nearly 10,000 small molecules were screened.

## CN(C)S(=O)(=O)c1ccc2c(c1)/C(=C/c1cc3c([nH]1)CCCC3)C(=O)N2 [SU6656]
[1]
  polyploidization: efficiently promoted polyploidization
[2]
  polyploidization: efficiently promoted polyploidization
[3]
  polyploidization: efficiently promoted polyploidization
[4]
  polyploidization: promote polyploidization
[5]
  proliferation (cell numbers): cessation of proliferation
[6]
  proliferation of megakaryocyte progenitors: effectively reduces proliferation
[7]
  positive in polyploidization screen: positives
